Data taken from patent publication US20240343727A1, “PYRIDAZINONE OR PYRIDINONE COMPOUNDS, PREPARATION METHODS AND USES THEREOF” (InventisBio Co., Ltd., priority 2021, published 2024).
pIC50: −log10 of the molar value.

Molecular target: T1, PARP7 (Homo sapiens, UniProt Q7Z3E1)
T1 sequence (Q7Z3E1 1-657): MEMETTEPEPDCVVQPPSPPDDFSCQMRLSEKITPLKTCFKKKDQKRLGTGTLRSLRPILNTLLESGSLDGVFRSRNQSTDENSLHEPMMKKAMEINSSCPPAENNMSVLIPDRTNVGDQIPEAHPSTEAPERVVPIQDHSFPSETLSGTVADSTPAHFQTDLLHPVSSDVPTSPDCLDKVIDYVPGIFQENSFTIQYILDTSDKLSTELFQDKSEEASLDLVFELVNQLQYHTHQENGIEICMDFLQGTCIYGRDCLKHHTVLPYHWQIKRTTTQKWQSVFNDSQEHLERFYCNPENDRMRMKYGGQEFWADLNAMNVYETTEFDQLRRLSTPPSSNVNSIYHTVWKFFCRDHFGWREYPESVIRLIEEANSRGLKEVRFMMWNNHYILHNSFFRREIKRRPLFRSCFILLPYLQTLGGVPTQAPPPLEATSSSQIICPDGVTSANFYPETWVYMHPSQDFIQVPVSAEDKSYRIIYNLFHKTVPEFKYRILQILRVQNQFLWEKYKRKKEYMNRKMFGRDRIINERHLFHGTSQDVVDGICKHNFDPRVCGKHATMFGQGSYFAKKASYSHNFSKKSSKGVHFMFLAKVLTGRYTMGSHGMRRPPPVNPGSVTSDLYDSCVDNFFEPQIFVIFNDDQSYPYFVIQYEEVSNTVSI
Assay: PARP7 TR-FRET assay (binding, displacement of biotinylated Probe A)
Conditions: 6 nM PARP7, 2 nM Probe A, 25° C., 30 min
Method in brief: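 His-tagged PARP7 at 6 nM was preincubated with compound and 2 nM biotinylated Probe A for 30 min at 25° C (HEPES pH 8.0, NaCl, BSA, DTT, Tween20). Europium-streptavidin/ULight-anti-His FRET was read as the 665/615 nm ratio after a further 30 min. IC50 was fitted from % inhibition normalised to vehicle and blank.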

| SMILES | pIC50 |
| --- | --- |
| O=C(CC1CN(c2cc(C(F)(F)F)c(=O)[nH]n2)c2ccccc2O1)N1CCn2c(nnc2C(F)(F)F)C1 (single isomer, unassigned) [Compound 290] | < 6.00 |
| O=C(CC1CN(c2cc(C(F)(F)F)c(=O)[nH]n2)c2cc(F)ccc2O1)N1CCN(c2cnc(C(F)(F)F)cn2)CC1 (single isomer, unassigned) [Compound 292] | 6.00 to 7.00 |
| N#Cc1cnc(N2CCN(C(=O)CC3CN(c4cc(C(F)(F)F)c(=O)[nH]n4)c4cc(Cl)ccc4O3)CC2)nc1 (single isomer, unassigned) [Compound 293] | > 7.00 |
| N#Cc1cnc(N2CCN(C(=O)CC3CN(c4cc(C(F)(F)F)c(=O)[nH]n4)c4cc(Cl)ccc4O3)CC2)nc1 (single isomer, unassigned) [Compound 294] | 6.00 to 7.00 |
| O=C(CC1CN(c2cc(C(F)(F)F)c(=O)[nH]n2)c2ccccc2O1)N1CCN(c2ncc(Cl)cn2)CC1 (single isomer, unassigned) [Compound 295] | 6.00 to 7.00 |
| O=C(CC1CN(c2cc(C(F)(F)F)c(=O)[nH]n2)c2ccccc2O1)N1CCN(c2ncc(Cl)cn2)CC1 (single isomer, unassigned) [Compound 296] | > 7.00 |
| O=C(CC1CN(c2cc(C(F)(F)F)c(=O)[nH]n2)c2cc(F)ccc2O1)N1CCN(c2ccc(C3CC3)cn2)CC1 (single isomer, unassigned) [Compound 301] | < 6.00 |
| O=C(CC1CN(c2cc(C(F)(F)F)c(=O)[nH]n2)c2cc(F)ccc2O1)N1CCN(c2ncc(OC(F)(F)F)cn2)CC1 (single isomer, unassigned) [Compound 311] | > 7.00 |
| C[C@@H]1CN(C(=O)CC2CN(c3cc(C(F)(F)F)c(=O)[nH]n3)c3cc(F)ccc3O2)CCN1c1ncc(C#N)cn1 (single isomer, unassigned) [Compound 325] | > 7.00 |
| C[C@@H]1CN(C(=O)CC2CN(c3cc(C(F)(F)F)c(=O)[nH]n3)c3cc(F)ccc3O2)CCN1c1ncc(C#N)cn1 (single isomer, unassigned) [Compound 326] | 6.00 to 7.00 |
| N#Cc1ccc(N2CCN(C(=O)CC3CN(c4cc(C(F)(F)F)c(=O)[nH]n4)c4cc(C(F)F)ccc4O3)CC2)nc1 (single isomer, unassigned) [Compound 327] | > 7.00 |
| N#Cc1ccc(N2CCN(C(=O)CC3CN(c4cc(C(F)(F)F)c(=O)[nH]n4)c4cc(C(F)F)ccc4O3)CC2)nc1 (single isomer, unassigned) [Compound 328] | > 7.00 |
| C[C@@H]1CN(C(=O)CC2CN(c3cc(C(F)(F)F)c(=O)[nH]n3)c3cc(Cl)ccc3O2)CCN1c1ncc(C#N)cn1 (single isomer, unassigned) [Compound 329] | > 7.00 |
| C[C@@H]1CN(C(=O)CC2CN(c3cc(C(F)(F)F)c(=O)[nH]n3)c3cc(Cl)ccc3O2)CCN1c1ncc(C#N)cn1 (single isomer, unassigned) [Compound 330] | 6.00 to 7.00 |
| N#CC1(c2ccnc(N3CCN(C(=O)CC4CN(c5cc(C(F)(F)F)c(=O)[nH]n5)c5cc(F)ccc5O4)CC3)n2)CC1 (single isomer, unassigned) [Compound 343] | > 7.00 |
| N#CC1(c2ccnc(N3CCN(C(=O)CC4CN(c5cc(C(F)(F)F)c(=O)[nH]n5)c5cc(F)ccc5O4)CC3)n2)CC1 (single isomer, unassigned) [Compound 344] | < 6.00 |
| N#CC1(c2ccnc(N3CCN(C(=O)CC4CN(c5cc(C(F)(F)F)c(=O)[nH]n5)c5cc(Cl)ccc5O4)CC3)n2)CC1 (single isomer, unassigned) [Compound 345] | < 6.00 |
| CC(C)(O)c1cnc(N2CCN(C(=O)CC3CN(c4cc(C(F)(F)F)c(=O)[nH]n4)c4cc(F)ccc4O3)CC2)nc1 (single isomer, unassigned) [Compound 348] | > 7.00 |
| CC(C)(O)c1cnc(N2CCN(C(=O)CC3CN(c4cc(C(F)(F)F)c(=O)[nH]n4)c4cc(F)ccc4O3)CC2)nc1 (single isomer, unassigned) [Compound 351] | > 7.00 |

The remaining lines, values ahead:

| pIC50 | SMILES |
| --- | --- |
| 6.00 to 7.00 | CNCc1ccc2c(c1)N(c1cc(C(F)(F)F)c(=O)[nH]n1)CC(CC(=O)N1CCN(c3ncc(C(F)(F)F)cn3)CC1)O2 (single isomer, unassigned) [Compound 297] |
| 6.00 to 7.00 | CNCc1ccc2c(c1)N(c1cc(C(F)(F)F)c(=O)[nH]n1)CC(CC(=O)N1CCN(c3ncc(C(F)(F)F)cn3)CC1)O2 (single isomer, unassigned) [Compound 298] |
| > 7.00 | COCCNC(=O)c1ccc2c(c1)N(c1cc(C(F)(F)F)c(=O)[nH]n1)CC(CC(=O)N1CCN(c3ncc(C(F)(F)F)cn3)CC1)O2 (single isomer, unassigned) [Compound 310] |
| 6.00 to 7.00 | O=C(CC1CN(c2cc(C(F)(F)F)c(=O)[nH]n2)c2cc(F)ccc2O1)N1CCN(c2ncc(OC(F)(F)F)cn2)CC1 (single isomer, unassigned) [Compound 312] |
| > 7.00 | CNC(=O)c1ccc2c(c1)N(c1cc(C(F)(F)F)c(=O)[nH]n1)CC(CC(=O)N1CCN(c3ncc(C(F)(F)F)cn3)CC1)O2 (single isomer, unassigned) [Compound 323] |
| > 7.00 | N#CC1(c2ccc3c(c2)N(c2cc(C(F)(F)F)c(=O)[nH]n2)CC(CC(=O)N2CCN(c4ncc(C(F)(F)F)cn4)CC2)O3)CC1 (single isomer, unassigned) [Compound 338] |
| > 7.00 | Cc1c(N2C[C@H](CC(=O)N3CCN(c4ncc(C(F)(F)F)cn4)CC3)O[C@H](C)C2)n[nH]c(=O)c1C(F)(F)F (stereo in doubt) [Compound 41] |
| > 7.00 | C[C@H]1CN(c2cc(C(F)(F)F)c(=O)[nH]n2)C[C@@H](CC(=O)N2CCN(c3ncc(C(F)(F)F)cn3)CC2)O1 (stereo in doubt) [Compound 79] |
| 6.00 to 7.00 | C[C@H]1CN(c2n[nH]c(=O)c3cccc(F)c23)C[C@H](CC(=O)N2CCN(c3ncc(C(F)(F)F)cn3)CC2)O1 (stereo in doubt) [Compound 88] |
| 6.00 to 7.00 | C[C@@H]1CN(c2n[nH]c(=O)c3cccc(F)c23)C[C@@H](CC(=O)N2CCN(c3ncc(C(F)(F)F)cn3)CC2)O1 (stereo in doubt) [Compound 90] |
| 6.00 to 7.00 | C[C@H]1CN(c2n[nH]c(=O)c3c(F)cccc23)C[C@H](CC(=O)N2CCN(c3ncc(C(F)(F)F)cn3)CC2)O1 (stereo in doubt) [Compound 91] |
| > 7.00 | C[C@H]1CN(c2n[nH]c(=O)c3c(F)cccc23)C[C@@H](CC(=O)N2CCN(c3ncc(C(F)(F)F)cn3)CC2)O1 (stereo in doubt) [Compound 95] |
| 6.00 to 7.00 | C[C@@H]1CN(c2n[nH]c(=O)c3c(F)cccc23)C[C@@H](CC(=O)N2CCN(c3ncc(C(F)(F)F)cn3)CC2)O1 (stereo in doubt) [Compound 96] |
| 6.00 to 7.00 | C[C@@H]1CN(c2cc(C(F)(F)F)c(=O)[nH]n2)C[C@H](CC(=O)N2CCN(c3ncc(C(F)(F)F)cn3)CC2)O1 (stereo in doubt) [Compound 110] |
| > 7.00 | C[C@H]1CN(c2cc(C(F)(F)F)c(=O)[nH]n2)C[C@H](CC(=O)N2CCN(c3ncc(C(F)(F)F)cn3)CC2)O1 (stereo in doubt) [Compound 111] |
| > 7.00 | C[C@@H]1CN(c2cc(C(F)(F)F)c(=O)[nH]n2)C[C@@H](CC(=O)N2CCN(c3ncc(C(F)(F)F)cn3)CC2)O1 (stereo in doubt) [Compound 112] |
| 6.00 to 7.00 | C[C@@H]1CN(c2n[nH]c(=O)c3c(F)cccc23)C[C@H](CC(=O)N2CCN(c3ncc(C(F)(F)F)cn3)CC2)O1 (stereo in doubt) [Compound 118] |
